From patent US8343961B2, “Substituted heterocyclic compounds” (ArQule, Inc., priority 2009, dated 2013)

Legend:
[1] = molecular target: RET kinase (Homo sapiens, UniProt P07949); test: RET Kinase Activity Assay; format: biochemical; settings: read-out: Ret, % INH, at 30 uM
Method: The disclosed compounds were assayed for their ability to inhibit the activity of RET kinase. Nunc Maxwasorb plates were coated with streptavidin by overnight incubation with 100 μL per well of 1 μg/mL Streptavidin in DPBS. Prior to the start of the experiment, the plates were washed with TBST (3×200 μL) and blocked for at least 1 hour by adding 150 μL of 5% BSA/TBST. The plates were washed with TBST (3×200 […]) and left dry immediately before the capture step.
The test articles and controls (Staurosporine and Sutent) were prepared using the following assay buffer @ 3× desired final concentration (50 mM […], 0.02 mg/mL BSA, 10 mM MgCl2, 0.1 mM Na3VO4, 1 mM EGTA, 75 μM ATP0.01% NP-40, 2 mM DTT in 10% glycerol/water). In a reaction plate, were added rapidly 20 μL test article (or control) and 20 μL RET (0.25 ng/4 final concentration). The plate was incubated for 15 minutes. To the reaction plate was added 20 μL of Pyk-2 (0.25 ng/4 final concentration). The plate was incubated at room temperature for one hour.
From the reaction plate, 50 μL was transferred to the streptavidin coated plate. The capture plate was incubated at room temperature for 30 minutes then washed 6× with TBST. To the capture plate was added 100 μL/well of Cell Signaling anti-phospho tyrosine at a dilution of 1:3000 in 2% BSA/TBST. The plate was incubated for one hour at room temperature then washed 6× with TBST. To the capture plate was added 100 μL/well of Alkaline Phosphatase Tagged Goat anti Mouse Antibody at a dilution of 1:4000 in 2% BSA/TBST. The plate was incubated for one hour at room temperature then washed 6× with TBST. The fluorescent readout was initiated by the addition of 100 μL/well of Attophos reagent (6 mg/10 mL). The reading was done on the Perkin Elmer Envision system.

[2] = molecular target: T1, EphA8 (Homo sapiens, UniProt P29322); test: EphA8 Kinase Activity Assay; format: biochemical; settings: read-out: EphA8, % INH, at 30 uM
T1 sequence (P29322 28-1005): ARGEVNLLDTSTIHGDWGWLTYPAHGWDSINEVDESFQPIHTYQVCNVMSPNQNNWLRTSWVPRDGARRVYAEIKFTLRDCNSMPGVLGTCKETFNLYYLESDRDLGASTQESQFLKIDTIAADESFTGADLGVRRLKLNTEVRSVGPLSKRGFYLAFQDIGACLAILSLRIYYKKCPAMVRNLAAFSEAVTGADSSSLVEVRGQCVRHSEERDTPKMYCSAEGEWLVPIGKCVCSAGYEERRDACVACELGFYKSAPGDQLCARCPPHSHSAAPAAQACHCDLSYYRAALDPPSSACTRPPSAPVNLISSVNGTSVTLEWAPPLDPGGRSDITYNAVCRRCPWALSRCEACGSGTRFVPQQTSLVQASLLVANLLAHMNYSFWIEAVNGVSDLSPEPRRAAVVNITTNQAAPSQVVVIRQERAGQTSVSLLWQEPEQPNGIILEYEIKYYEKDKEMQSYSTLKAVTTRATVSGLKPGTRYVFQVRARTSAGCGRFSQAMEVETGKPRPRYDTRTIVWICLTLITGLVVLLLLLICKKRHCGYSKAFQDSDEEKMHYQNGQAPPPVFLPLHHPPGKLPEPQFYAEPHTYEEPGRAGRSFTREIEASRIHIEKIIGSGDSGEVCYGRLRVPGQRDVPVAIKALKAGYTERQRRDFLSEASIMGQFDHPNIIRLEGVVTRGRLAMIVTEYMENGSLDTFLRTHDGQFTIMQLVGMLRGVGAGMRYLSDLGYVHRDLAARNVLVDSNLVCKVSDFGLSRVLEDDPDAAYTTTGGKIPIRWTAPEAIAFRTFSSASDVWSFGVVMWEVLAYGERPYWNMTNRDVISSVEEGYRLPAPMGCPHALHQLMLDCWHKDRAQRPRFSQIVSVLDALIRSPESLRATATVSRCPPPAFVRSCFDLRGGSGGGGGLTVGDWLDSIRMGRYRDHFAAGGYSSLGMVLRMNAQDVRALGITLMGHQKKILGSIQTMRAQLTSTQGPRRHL
Method: Nunc Maxisorb plates are coated with streptavidin by overnight incubation with 100 μL per well of 1 μg/ml Streptavidin in DPBS. Prior to the start of the experiment, the plates are washed with TBST (3×200 μL) and blocked for at least 1 hour by adding 150 μL of 5% BSA/TBST. The plates are washed with TBST (3×200 μL/well) and left dry immediately before the capture step.
The test articles and control (Staurosporine) are prepared using the following assay buffer @ 3× desired final concentration (50 mM Tris-HCl, 0.02 mg/ml BSA, 10 mM MgCl2, 0.1 mM Na3VO4, 1 mM EGTA, 12.5 μM ATP, 0.01% NP-40, 1 mM DTT in 10% glycerol/water). In a reaction plate are added rapidly 20 μl test article (or control) and 20 μl EphA8 (0.12 ng/μl final concentration). The plate is incubated for 15 minutes. To the reaction plate is added 20 μl of Pyk-2 (0.75 ng/μl final concentration). The plate is incubated at room temperature for one hour. From the reaction plate, 50 μl is transferred to the streptavidin coated plate. The capture plate is incubated at room temperature for 30 minutes, then washed 6× with TBST. To the capture plate is added 100 μL/well of Cell Signaling anti-phospho tyrosine at a dilution of 1:3000 in 2% BSA/TBST. The plate is incubated for one hour at room temperature then washed 6× with TBST. To the capture plate is added 100 μL/well of Alkaline Phosphatase Tagged Goat anti Mouse Antibody at a dilution of 1:4000 in 2% BSA/TBST. The plate is incubated for one hour at room temperature then washed 6× with TBST. The fluorescent readout is initiated by the addition of 100 μl/well of Attophos reagent (6 mg/10 mL). The reading is done on the Perkin Elmer Envision system.

Chain of RET kinase (P07949 29-1114): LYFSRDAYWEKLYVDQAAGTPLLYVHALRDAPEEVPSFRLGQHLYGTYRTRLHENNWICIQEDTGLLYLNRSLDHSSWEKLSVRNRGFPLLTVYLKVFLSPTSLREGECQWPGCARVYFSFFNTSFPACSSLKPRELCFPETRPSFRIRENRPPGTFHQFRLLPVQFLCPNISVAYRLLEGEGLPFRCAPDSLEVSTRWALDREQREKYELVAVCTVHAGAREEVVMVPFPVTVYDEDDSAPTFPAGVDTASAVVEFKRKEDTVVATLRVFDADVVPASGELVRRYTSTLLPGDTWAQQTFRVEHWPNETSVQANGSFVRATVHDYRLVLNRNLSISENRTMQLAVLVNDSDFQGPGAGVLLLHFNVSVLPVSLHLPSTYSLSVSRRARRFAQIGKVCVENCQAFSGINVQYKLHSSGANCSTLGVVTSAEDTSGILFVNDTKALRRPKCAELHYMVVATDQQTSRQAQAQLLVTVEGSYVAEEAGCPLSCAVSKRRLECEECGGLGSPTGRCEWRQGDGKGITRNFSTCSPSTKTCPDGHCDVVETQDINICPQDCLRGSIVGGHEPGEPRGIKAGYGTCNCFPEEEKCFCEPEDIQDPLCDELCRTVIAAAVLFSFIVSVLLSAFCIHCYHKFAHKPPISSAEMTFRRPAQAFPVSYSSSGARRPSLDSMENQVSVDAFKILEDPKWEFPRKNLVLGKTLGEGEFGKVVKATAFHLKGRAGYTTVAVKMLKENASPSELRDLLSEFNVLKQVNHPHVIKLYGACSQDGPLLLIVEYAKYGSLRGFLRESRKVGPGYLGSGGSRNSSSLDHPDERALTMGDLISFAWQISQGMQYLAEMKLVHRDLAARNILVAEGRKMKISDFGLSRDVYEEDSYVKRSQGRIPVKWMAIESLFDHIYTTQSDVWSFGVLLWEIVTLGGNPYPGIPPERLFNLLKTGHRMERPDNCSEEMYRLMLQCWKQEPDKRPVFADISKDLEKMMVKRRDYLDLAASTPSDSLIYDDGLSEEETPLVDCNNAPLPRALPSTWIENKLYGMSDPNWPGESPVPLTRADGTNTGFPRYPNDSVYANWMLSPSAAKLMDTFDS

Row | inhibition at 30 µM [1] [%] | inhibition at 30 µM [2] [%] | Compound
1 | 50 to 79 | < 50 | Cc1ccc(CN2CCN(c3nc(N)nc4[nH]cnc34)Cc3ccccc32)cc1 [Compound 26, 6-[1-(4-methylbenzyl)-1,2,3,5-tetrahydro-4H-1,4-benzodiazepin-4-yl]-9H-purin-2-amine]
2 | < 50 | < 50 | Cc1ccccc1CN1CCN(c2nc(N)nc3[nH]ncc23)Cc2ccccc21 [Compound 12, 4-[1-(2-methylbenzyl)-1,2,3,5-tetrahydro-4H-1,4-benzodiazepin-4-yl]-1H-pyrazolo[3,4-d]pyrimidin-6-amine]
3 | 50 to 79 | < 50 | Nc1nc(N2CCN(CCCc3ccccc3)c3ccccc3C2)c2nc[nH]c2n1 [Compound 40, 6-[1-(3-phenylpropyl)-1,2,3,5-tetrahydro-4H-1,4-benzodiazepin-4-yl]-9H-purin-2-amine]
4 | < 50 | < 50 | Nc1nc(N2CCN(CCCc3cccc(Cl)c3)c3ccccc3C2)c2cn[nH]c2n1 [Compound 8, 4-{1-[3-(3-chlorophenyl)propyl]-1,2,3,5-tetrahydro-4H-1,4-benzodiazepin-4-yl}-1H-pyrazolo[3,4-d]pyrimidin-6-amine]
5 | 50 to 79 | 50 to 79 | Nc1nc(N2CCN(Cc3cccc(Cl)c3)c3ccccc3C2)c2nc[nH]c2n1 [Compound 24, 6-[1-(3-chlorobenzyl)-1,2,3,5-tetrahydro-4H-1,4-benzodiazepin-4-yl]-9H-purin-2-amine]
6 | < 50 | < 50 | Nc1nc(N2CCN(Cc3ccc(Cl)cc3Cl)c3ccccc3C2)c2nc[nH]c2n1 [Compound 31, 6-[1-(2,4-dichlorobenzyl)-1,2,3,5-tetrahydro-4H-1,4-benzodiazepin-4-yl]-9H-purin-2-amine]
7 | < 50 | < 50 | Nc1nc(N2CCN(Cc3ccccc3Cl)c3ccccc3C2)c2nc[nH]c2n1 [Compound 13, 6-[1-(2-chlorobenzyl)-1,2,3,5-tetrahydro-4H-1,4-benzodiazepin-4-yl]-9H-purin-2-amine]
8 | < 50 | < 50 | Nc1nc(N2CCN(Cc3cccc(C(F)(F)F)c3)c3ccccc3C2)c2cn[nH]c2n1 [Compound 21, 4-{1-[3-(trifluoromethyl)benzyl]-1,2,3,5-tetrahydro-4H-1,4-benzodiazepin-4-yl}-1H-pyrazolo[3,4-d]pyrimidin-6-amine]
9 | 50 to 79 | < 50 | Nc1nc(N2CCN(CCCc3cccc(F)c3)c3ccccc3C2)c2nc[nH]c2n1 [Compound 39, 6-{1-[3-(3-fluorophenyl)propyl]-1,2,3,5-tetrahydro-4H-1,4-benzodiazepin-4-yl}-9H-purin-2-amine]
10 | < 50 | < 50 | COc1ccc(CN2CCN(c3nc(N)nc4[nH]cnc34)Cc3ccccc32)cc1OC [Compound 27, 6-[1-(3,4-dimethoxybenzyl)-1,2,3,5-tetrahydro-4H-1,4-benzodiazepin-4-yl]-9H-purin-2-amine]
11 | < 50 | < 50 | COc1ccc(OC)c(CN2CCN(c3nc(N)nc4[nH]cnc34)Cc3ccccc32)c1 [Compound 35, 6-[1-(2,5-dimethoxybenzyl)-1,2,3,5-tetrahydro-4H-1,4-benzodiazepin-4-yl]-9H-purin-2-amine]
12 | 50 to 79 | 50 to 79 | Nc1nc(N2CCN(Cc3cccc(F)c3)c3ccccc3C2)c2cn[nH]c2n1 [Compound 6, 4-[1-(3-fluorobenzyl)-1,2,3,5-tetrahydro-4H-1,4-benzodiazepin-4-yl]-1H-pyrazolo[3,4-d]pyrimidin-6-amine]
13 | 50 to 79 | < 50 | Nc1nc(N2CCN(Cc3ccc(F)cc3F)c3ccccc3C2)c2nc[nH]c2n1 [Compound 37, 6-[1-(2,4-difluorobenzyl)-1,2,3,5-tetrahydro-4H-1,4-benzodiazepin-4-yl]-9H-purin-2-amine]
14 | < 50 | 50 to 79 | Nc1nc(N2CCN(Cc3ccc(Cl)cc3)c3ccccc3C2)c2cn[nH]c2n1 [Compound 23, 4-[1-(4-chlorobenzyl)-1,2,3,5-tetrahydro-4H-1,4-benzodiazepin-4-yl]-1H-pyrazolo[3,4-d]pyrimidin-6-amine]
15 | 50 to 79 | 50 to 79 | COc1cccc(CN2CCN(c3nc(N)nc4[nH]ncc34)Cc3ccccc32)c1 [Compound 1, 4-[1-(3-methoxybenzyl)-1,2,3,5-tetrahydro-4H-1,4-benzodiazepin-4-yl]-1H-pyrazolo[3,4-d]pyrimidin-6-amine]
16 | 50 to 79 | < 50 | CC(C)(C)c1ccc(CN2CCN(c3nc(N)nc4[nH]ncc34)Cc3ccccc32)cc1 [Compound 30, 4-[1-(4-tert-butylbenzyl)-1,2,3,5-tetrahydro-4H-1,4-benzodiazepin-4-yl]-1H-pyrazolo[3,4-d]pyrimidin-6-amine]
17 | < 50 | < 50 | Nc1nc(N2CCN(CCCc3cccc(Cl)c3)c3ccccc3C2)c2nc[nH]c2n1 [Compound 7, 6-{1-[3-(3-chlorophenyl)propyl]-1,2,3,5-tetrahydro-4H-1,4-benzodiazepin-4-yl}-9H-purin-2-amine]
18 | < 50 | 50 to 79 | Nc1nc(N2CCN(Cc3cccc(C(F)(F)F)c3)c3ccccc3C2)c2nc[nH]c2n1 [Compound 20, 6-{1-[3-(trifluoromethyl)benzyl]-1,2,3,5-tetrahydro-4H-1,4-benzodiazepin-4-yl}-9H-purin-2-amine]
19 | 50 to 79 | 50 to 79 | Nc1nc(N2CCN(Cc3ccc(Cl)c(Cl)c3)c3ccccc3C2)c2cn[nH]c2n1 [Compound 43, 4-[1-(3,4-dichlorobenzyl)-1,2,3,5-tetrahydro-4H-1,4-benzodiazepin-4-yl]-1H-pyrazolo[3,4-d]pyrimidin-6-amine]
20 | 50 to 79 | 50 to 79 | Nc1nc(N2CCN(Cc3cccc4ccccc34)c3ccccc3C2)c2nc[nH]c2n1 [Compound 17, 6-[1-(1-naphthylmethyl)-1,2,3,5-tetrahydro-4H-1,4-benzodiazepin-4-yl]-9H-purin-2-amine]
